PubChem BioAssay (NCI)
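1) Cells in 96-well plates. 2) Compound, 48 h, 5 concentrations. 3) Linear interpolation between surrounding doses. 4) Unreached endpoint = highest concentration. GI50 = concentration required for 50% inhibition of growth. TGI: concentration producing complete growth inhibition.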

Experiments:
Assay in all cases: inhibition of tumour cell growth, NCI panel, 48 h
RXF 393 renal = test system: RXF 393 renal
MDA-MB-435 = test system: MDA-MB-435
HOP-92 NSCLC = test system: HOP-92 NSCLC
OVCAR-5 ovarian = test system: OVCAR-5 ovarian
SK-MEL-2 melanoma = test system: SK-MEL-2 melanoma
SK-OV-3 ovarian = test system: SK-OV-3 ovarian
LOX IMVI melanoma = test system: LOX IMVI melanoma
SK-MEL-5 melanoma = test system: SK-MEL-5 melanoma
RPMI-8226 leukemia = test system: RPMI-8226 leukemia
HS 578T breast = test system: HS 578T breast
SR leukemia = test system: SR leukemia
MOLT-4 leukemia = test system: MOLT-4 leukemia
OVCAR-3 ovarian = test system: OVCAR-3 ovarian
UACC-62 melanoma = test system: UACC-62 melanoma
IGROV1 ovarian = test system: IGROV1 ovarian
A498 renal = test system: A498 renal
NCI/ADR-RES ovarian = test system: NCI/ADR-RES ovarian
U251 CNS = test system: U251 CNS
SF-268 CNS = test system: SF-268 CNS
A549 NSCLC = test system: A549 NSCLC
OVCAR-4 ovarian = test system: OVCAR-4 ovarian
MCF7 breast = test system: MCF7 breast
NCI-H226 lung = test system: NCI-H226 lung
PC-3 prostate = test system: PC-3 prostate
HCT-116 colon = test system: HCT-116 colon
EKVX NSCLC = test system: EKVX NSCLC
SF-539 CNS = test system: SF-539 CNS
HCT-15 colon = test system: HCT-15 colon
UO-31 renal = test system: UO-31 renal
HOP-62 NSCLC = test system: HOP-62 NSCLC
786-0 renal = test system: 786-0 renal
HL-60(TB) leukemia = test system: HL-60(TB) leukemia
HCC-2998 colon = test system: HCC-2998 colon
SNB-75 CNS = test system: SNB-75 CNS
MDA-MB-231 breast = test system: MDA-MB-231 breast
NCI-H23 lung = test system: NCI-H23 lung
KM12 colon = test system: KM12 colon
SK-MEL-28 melanoma = test system: SK-MEL-28 melanoma
OVCAR-8 ovarian = test system: OVCAR-8 ovarian
MALME-3M melanoma = test system: MALME-3M melanoma
T-47D breast = test system: T-47D breast
SNB-19 CNS = test system: SNB-19 CNS
SF-295 CNS = test system: SF-295 CNS
DU-145 prostate = test system: DU-145 prostate
K-562 leukemia = test system: K-562 leukemia
HT29 colon = test system: HT29 colon
TK-10 renal = test system: TK-10 renal
UACC-257 melanoma = test system: UACC-257 melanoma
COLO 205 colon = test system: COLO 205 colon
NCI-H460 lung = test system: NCI-H460 lung
BT-549 breast = test system: BT-549 breast
ACHN renal = test system: ACHN renal
M14 melanoma = test system: M14 melanoma
NCI-H522 lung = test system: NCI-H522 lung
CAKI-1 renal = test system: CAKI-1 renal
SN12C renal = test system: SN12C renal
SW-620 colon = test system: SW-620 colon
CCRF-CEM leukemia = test system: CCRF-CEM leukemia

Oc1ccc(OCCOc2ccc(O)cc2)cc1
GI50 (RXF 393 renal): 6.18 µM
TGI (RXF 393 renal): > 100 µM
GI50 (MDA-MB-435): 3.22 µM
TGI (MDA-MB-435): > 100 µM
GI50 (HOP-92 NSCLC): 3.65 µM
TGI (HOP-92 NSCLC): > 100 µM
GI50 (OVCAR-5 ovarian): 10.4 µM
TGI (OVCAR-5 ovarian): > 100 µM
GI50 (SK-MEL-2 melanoma): 8.26 µM
TGI (SK-MEL-2 melanoma): 82.6 µM
GI50 (SK-OV-3 ovarian): 99.2 µM
TGI (SK-OV-3 ovarian): > 100 µM
GI50 (LOX IMVI melanoma): 1.24 µM
TGI (LOX IMVI melanoma): > 100 µM
GI50 (SK-MEL-5 melanoma): 1.5 µM
TGI (SK-MEL-5 melanoma): 4.36 µM
GI50 (RPMI-8226 leukemia): 9.24 µM
TGI (RPMI-8226 leukemia): > 100 µM
GI50 (HS 578T breast): > 100 µM
TGI (HS 578T breast): > 100 µM
GI50 (SR leukemia): 7.41 µM
TGI (SR leukemia): > 100 µM
GI50 (MOLT-4 leukemia): 8.82 µM
TGI (MOLT-4 leukemia): > 100 µM
GI50 (OVCAR-3 ovarian): 5.67 µM
TGI (OVCAR-3 ovarian): > 100 µM
GI50 (UACC-62 melanoma): 2.45 µM
TGI (UACC-62 melanoma): 13.8 µM
GI50 (IGROV1 ovarian): 5.94 µM
TGI (IGROV1 ovarian): > 100 µM
GI50 (A498 renal): 3.17 µM
TGI (A498 renal): > 100 µM
GI50 (NCI/ADR-RES ovarian): 3.41 µM
TGI (NCI/ADR-RES ovarian): > 100 µM
GI50 (U251 CNS): 4.41 µM
TGI (U251 CNS): > 100 µM
GI50 (SF-268 CNS): 3.94 µM
TGI (SF-268 CNS): > 100 µM
GI50 (A549 NSCLC): 3.5 µM
TGI (A549 NSCLC): > 100 µM
GI50 (OVCAR-4 ovarian): > 100 µM
TGI (OVCAR-4 ovarian): > 100 µM
GI50 (MCF7 breast): 4.77 µM
TGI (MCF7 breast): > 100 µM
GI50 (NCI-H226 lung): 4.98 µM
TGI (NCI-H226 lung): > 100 µM
GI50 (PC-3 prostate): 2.75 µM
TGI (PC-3 prostate): > 100 µM
GI50 (HCT-116 colon): 6.24 µM
TGI (HCT-116 colon): > 100 µM
GI50 (EKVX NSCLC): 11.2 µM
TGI (EKVX NSCLC): > 100 µM
GI50 (SF-539 CNS): 2.2 µM
TGI (SF-539 CNS): 28.2 µM
GI50 (HCT-15 colon): 8.55 µM
TGI (HCT-15 colon): > 100 µM
GI50 (UO-31 renal): 1.47 µM
TGI (UO-31 renal): 8.83 µM
GI50 (HOP-62 NSCLC): 8.97 µM
TGI (HOP-62 NSCLC): > 100 µM
GI50 (786-0 renal): 3.26 µM
TGI (786-0 renal): > 100 µM
GI50 (HL-60(TB) leukemia): 5.22 µM
TGI (HL-60(TB) leukemia): > 100 µM
GI50 (HCC-2998 colon): 3.36 µM
TGI (HCC-2998 colon): 95.9 µM
GI50 (SNB-75 CNS): > 100 µM
TGI (SNB-75 CNS): > 100 µM
GI50 (MDA-MB-231 breast): 0.414 µM
TGI (MDA-MB-231 breast): > 100 µM
GI50 (NCI-H23 lung): 4.5 µM
TGI (NCI-H23 lung): > 100 µM
GI50 (KM12 colon): 2.26 µM
TGI (KM12 colon): > 100 µM
GI50 (SK-MEL-28 melanoma): 88.9 µM
TGI (SK-MEL-28 melanoma): > 100 µM
GI50 (OVCAR-8 ovarian): 3.37 µM
TGI (OVCAR-8 ovarian): > 100 µM
GI50 (MALME-3M melanoma): 3.69 µM
TGI (MALME-3M melanoma): > 100 µM
GI50 (T-47D breast): 4.15 µM
TGI (T-47D breast): > 100 µM
GI50 (SNB-19 CNS): 27.8 µM
TGI (SNB-19 CNS): > 100 µM
GI50 (SF-295 CNS): 2.36 µM
TGI (SF-295 CNS): 16.6 µM
GI50 (DU-145 prostate): 2.8 µM
TGI (DU-145 prostate): > 100 µM
GI50 (K-562 leukemia): 3.08 µM
TGI (K-562 leukemia): > 100 µM
GI50 (HT29 colon): 12.7 µM
TGI (HT29 colon): > 100 µM
GI50 (TK-10 renal): 6.65 µM
TGI (TK-10 renal): > 100 µM
GI50 (UACC-257 melanoma): 6.08 µM
TGI (UACC-257 melanoma): > 100 µM
GI50 (COLO 205 colon): 21.3 µM
TGI (COLO 205 colon): 60.6 µM
GI50 (NCI-H460 lung): 3.57 µM
TGI (NCI-H460 lung): > 100 µM
GI50 (BT-549 breast): 8.08 µM
TGI (BT-549 breast): > 100 µM
GI50 (ACHN renal): 0.964 µM
TGI (ACHN renal): > 100 µM
GI50 (M14 melanoma): 3.03 µM
TGI (M14 melanoma): 23.5 µM
GI50 (NCI-H522 lung): 1.72 µM
TGI (NCI-H522 lung): 55.9 µM
GI50 (CAKI-1 renal): 0.987 µM
TGI (CAKI-1 renal): 20.6 µM
GI50 (SN12C renal): 5.72 µM
TGI (SN12C renal): > 100 µM
GI50 (SW-620 colon): 3.68 µM
TGI (SW-620 colon): > 100 µM
GI50 (CCRF-CEM leukemia): 2.27 µM
TGI (CCRF-CEM leukemia): > 100 µM
